Results as given in paper PMC6151695, “Novel Selective Estrogen Receptor Ligand Conjugates Incorporating Endoxifen-Combretastatin and Cyclofenil-Combretastatin Hybrid Scaffolds: Synthesis and Biochemical Evaluation” (Molecules : A Journal of Synthetic Chemistry and Natural …, 2017).
Read-outs that look alike come from different tables or passages of the source.

What was measured:
[1] = molecular target: T1, human ERβ (Homo sapiens, UniProt Q92731); experiment: Estrogen receptor fluorescence polarisation competitive binding assay, ERβ
T1 construct: purchased Invitrogen

[2] = molecular target: T2, human ERα (Homo sapiens, UniProt P03372); experiment: Estrogen receptor fluorescence polarisation competitive binding assay, ERα; conditions: for Selectivity (α/β): ratio of RBA values ERα relative to ERβ; for ERα RBA: relative binding affinity, estradiol (5.7 nM) = 100%
T2 construct: purchased Invitrogen
T2 sequence (P03372 1-595): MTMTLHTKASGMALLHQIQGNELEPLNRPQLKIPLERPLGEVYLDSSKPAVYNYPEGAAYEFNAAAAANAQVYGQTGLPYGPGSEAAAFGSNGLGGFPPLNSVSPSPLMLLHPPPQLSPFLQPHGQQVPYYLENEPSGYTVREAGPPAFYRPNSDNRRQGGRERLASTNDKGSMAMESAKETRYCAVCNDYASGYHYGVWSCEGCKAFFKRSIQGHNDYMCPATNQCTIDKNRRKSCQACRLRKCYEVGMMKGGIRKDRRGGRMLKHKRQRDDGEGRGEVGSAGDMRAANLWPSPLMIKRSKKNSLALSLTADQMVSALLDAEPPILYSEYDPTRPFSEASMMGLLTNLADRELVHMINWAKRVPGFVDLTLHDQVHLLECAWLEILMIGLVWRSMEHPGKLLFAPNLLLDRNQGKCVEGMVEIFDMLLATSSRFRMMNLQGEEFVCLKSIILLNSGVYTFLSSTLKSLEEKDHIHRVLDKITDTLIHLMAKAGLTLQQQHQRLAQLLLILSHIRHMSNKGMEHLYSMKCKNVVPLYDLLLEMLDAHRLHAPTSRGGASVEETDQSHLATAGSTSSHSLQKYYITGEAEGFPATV

[3] = system: MCF-7 cells; experiment: Flow cytometry (propidium iodide) cell cycle and apoptosis analysis in MCF-7; format: cell-based, human; conditions: for apoptosis (in words): MCF-7, 72 h; for apoptosis / G2/M-arrest: MCF-7, 10 µM, 72 h
Experimental: Flow cytometry with propidium iodide stained cells was carried out to analyse the percentage of cells in each stage of the cell cycle and the number of apoptotic or dead cells. Samples were treated for 72 h at 10 µM. […] […].
(§1) MCF-7 cells were seeded at a density of 5 × 10^4 cells/well in a 12-well plate and treated with the indicated compounds for 72 h. Samples were then centrifuged at 650× g for 5 min and resuspended in 100 µL ice-cold PBS. Ice-cold 70% (v/v) ethanol (1 mL) was then added to fix the samples overnight at 4 °C. Samples were subsequently centrifuged at 800× g for 10 min and resuspended in 200 µL PBS. RNase A (12.5 µL of 10 mg/mL) and propidium iodide (37.5 µL of 1 mg/ mL) were added to samples which were then incubated for 30 min at 37°C. Cell cycle analysis was performed at 488 nm using a FACS Calibur flow cytometer (Becton Dickinson, Franklin Lakes, NJ, USA). The Macintosh-based application CellQuest was then used to analyse the data of 10,000 gated cells once cell debris had been excluded. Data points represent the mean ± S.E.M. of three independent experiments.

[4] = system: MCF-7 human breast cancer cell line; experiment: Alamar Blue assay for antiproliferative effects; format: cell-based; conditions: Homo sapiens
[5] = system: peripheral blood mononuclear cells (PBMCs); experiment: Flow cytometry (propidium iodide) in PBMCs of healthy donors; format: cell-based, human; conditions: 10 µM, 72 h
Experimental: Next, the same cohort of compounds was tested on peripheral blood mononuclear cells (PBMCs) isolated from the blood of healthy donors. Cells were treated with 10 µM of each compound for 72 h and subjected to flow cytometry.
as §1
Fresh peripheral blood was collected from healthy donors and diluted 1:3 with RPMI medium and added to half the equivalent volume of Lymphoprep. Samples were centrifuged at 750× g for 30 min to form a Ficoll gradient. The white buffy layer containing the peripheral blood mononuclear cells was removed, diluted to a volume of 50 mL with medium and centrifuged again for 10 min at 650× g. Cells were then seeded at a density of 1 × 10^6 cells in 1 mL of RPMI medium supplemented with 10% FBS, 2 mM L-glutamine and 100 U/mL penicillin and 100 µg/mL streptomycin.

[6] = system: MCF-7 cells; experiment: Lactate dehydrogenase (LDH) assay for cytotoxicity
[7] = HPLC stability study in phosphate buffer
[8] = in vitro; conditions: plasma
[9] = system: MCF-7 cells; conditions: human
[10] = competitive binding, fluorescence polarisation, read-out: ERβ IC50
[11] = competitive binding, fluorescence polarisation, read-out: ERα IC50
[12] = MCF7, 72 h, MCF-7, 72 h, Alamar Blue, read-out: IC50 (μM), antiproliferative effects
[13] = MCF7, 72 h, read-out: IC50 (μM), antiproliferative effects

T1 sequence (Q92731 whole entry): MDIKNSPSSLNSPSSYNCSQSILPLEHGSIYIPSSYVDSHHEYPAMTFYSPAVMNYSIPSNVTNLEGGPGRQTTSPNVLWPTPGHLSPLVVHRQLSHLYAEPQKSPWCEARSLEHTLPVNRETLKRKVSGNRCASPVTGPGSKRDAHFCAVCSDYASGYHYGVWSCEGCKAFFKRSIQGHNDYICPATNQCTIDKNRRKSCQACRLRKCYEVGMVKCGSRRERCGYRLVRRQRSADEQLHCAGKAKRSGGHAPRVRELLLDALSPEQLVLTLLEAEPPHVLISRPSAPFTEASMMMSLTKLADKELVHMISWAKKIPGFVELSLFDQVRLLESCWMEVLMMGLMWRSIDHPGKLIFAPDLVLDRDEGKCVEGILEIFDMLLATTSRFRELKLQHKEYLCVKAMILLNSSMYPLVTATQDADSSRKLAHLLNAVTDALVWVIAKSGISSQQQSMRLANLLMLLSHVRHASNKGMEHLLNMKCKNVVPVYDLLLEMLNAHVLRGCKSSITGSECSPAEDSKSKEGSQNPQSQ

Molecule	IC50 [1, 10] [nM]	IC50 [2, 11] [nM]	Selectivity (α/β) [2]	ERα RBA [2] [%]	IC50 [4, 12] [µM]	apoptosis (in words) [3]	apoptosis / toxic effects in PBMCs (in words) [5]	apoptosis [3] [%]	also measured
CCC(=C(c1ccc(O)cc1)c1ccc(OCCN(C)C(=O)/C(=C/c2cc(OC)c(OC)c(OC)c2)c2ccc(OC)c(O)c2)cc1)c1ccccc1 (mixture of isomers) [Compound 3i, (E/Z)-2-(3-Hydroxy-4-methoxyphenyl)-N-(2-(4-((Z)-1-(4-hydroxyphenyl)-2-phenylbut-1-en-1-yl)phenoxy)-ethyl)-N-methyl-3-(3,4,5-trimethoxyphenyl)acrylamide]	436	182	2.44	3.13	4.2	potently induce apoptosis	lack of toxicity		
COc1ccc(/C=C\c2cc(OC)c(OC)c(OC)c2)cc1O [CA4, Combretastatin A-4, reference compound]					0.008				cytotoxicity (LDH assay) [6]: 13%
CNCCOc1ccc(C(=C2CCCCCC2)c2ccc(O)cc2)cc1 [Compound 11c, 4-(Cycloheptylidene(4-(2-(methylamino)ethoxy)phenyl)methyl)phenol]	199	1740	0.12	0.328	1.38	potently induce apoptosis	induced apoptosis in PBMCs	79.7 ± 5.2	
COc1ccc(/C=C(/C(=O)N(C)CCOc2ccc(C(=C3CCCCCCC3)c3ccc(O)cc3)cc2)c2cc(OC)c(OC)c(OC)c2)cc1O [Compound 13d, (E)-N-(2-(4-(Cyclooctylidene(4-hydroxyphenyl)methyl)phenoxy)ethyl)-3-(3-hydroxy-4-methoxyphenyl)-N-methyl-2-(3,4,5-trimethoxyphenyl)acrylamide]						potently induce apoptosis	lack of toxicity	36	G2/M-arrest [3]: 27%; IC50 [4, 13]: 0.346 µM
COc1ccc(/C=C(/C(=O)N(C)CCOc2ccc(C(=C3CCC(C)CC3)c3ccc(O)cc3)cc2)c2cc(OC)c(OC)c(OC)c2)cc1O (stereo not shown) [Compound 13e, (E)-3-(3-Hydroxy-4-methoxyphenyl)-N-(2-(4-((4-hydroxyphenyl)(4-methylcyclohexaneylidene)methyl)-phenoxy)ethyl)-N-methyl-2-(3,4,5-trimethoxyphenyl) acrylamide]			12.3	30		potently induce apoptosis	lack of toxicity	48	IC50 [1]: 229 nM; IC50 [2]: 19 nM; selectivity towards ERα over ERβ ([2]; binding affinity preference): 12 fold; G2/M-arrest [3]: 18%; IC50 [4, 13]: 0.182 µM; IC50 ([4]; MCF7, read-out: IC50, antiproliferative activity): 0.187 µM
CC/C(=C(\c1ccc(O)cc1)c1ccc(OCCN(C)C(=O)CCC(=O)Oc2cc(/C=C\c3cc(OC)c(OC)c(OC)c3)ccc2OC)cc1)c1ccccc1 [Compound 16b, N-(2-{4-[(Z)-1-(4-Hydroxyphenyl)-2-phenylbut-1-enyl]phenoxy}ethyl)-N-methyl succinamic acid 2-methoxy-5-[(Z)-2-(3,4,5-trimethoxyphenyl)vinyl]phenyl ester]									remained intact in plasma at 12 h: 77%; remained at 12 h ([7]; pH range 4–9, 12 h): > 90%; half-life [8]: > 48 h; IC50 [4, 13]: 0.0057 µM; cytotoxicity (LDH assay) [9]: 4.1%
N-(2-{4-[1,2-Bis-(4-hydroxyphenyl)but-1-enyl]phenoxy}ethyl)-N-methylsuccinamic acid [Compound 14c]	6.7	11.3	0.60	50.44					increase in binding affinity compared to 4-hydroxytamoxifen ([2]; in both ER isoforms): approximately 3 fold

Further lines, with some results ahead:

IC50 [1, 10] [nM]	IC50 [2, 11] [nM]	Selectivity (α/β) [2]	ERα RBA [2] [%]	IC50 [4, 12] [µM]	Molecule	apoptosis (in words) [3]	apoptosis / toxic effects in PBMCs (in words) [5]	apoptosis [3] [%]	also measured
112	170	0.67	3.35	3.23	CNCCOc1ccc(C(=C2CCCCCCC2)c2ccc(O)cc2)cc1 [Compound 11d, 4-(Cyclooctylidene(4-(2-(methylamino)ethoxy)phenyl)methyl)phenol]				
67	3160	0.02	0.180	1.77	CNCCOc1ccc(C(=C2CCC(C)CC2)c2ccc(O)cc2)cc1 (stereo not shown) [Compound 11e, 4-((4-(2-(Methylamino)ethoxy)phenyl)(4-methylcyclohexaneylidene)methyl)phenol]	potently induce apoptosis	induced apoptosis in PBMCs	76	
90.1	70.9	1.29	8.04		CC/C(=C(\c1ccccc1)c1ccc(OCCN(C)C(=O)CCC(=O)Oc2cc(/C=C(/C(=O)OC)c3cc(OC)c(OC)c(OC)c3)ccc2OC)cc1)c1ccccc1 [Compound 16c, N-{2-[4-((Z)-1,2-Diphenylbut-1-enyl)phenoxy]ethyl}-N-methylsuccinamic acid 2-methoxy-5-[(E)-2-methoxycarbonyl-2-(3,4,5-trimethoxyphenyl)vinyl]phenyl ester]				half-life at 14.6 µg/mL ([7]; half-life, pH range 4–9): > 20 h
118	47	2.55	12.1	0.029	CC/C(=C(\c1ccc(O)cc1)c1ccc(OCCNC)cc1)c1ccccc1 [Endoxifen]				cytotoxicity (LDH assay) [6]: 23%
